Results published in PubChem BioAssay AID248 (DTP/NCI, 2004).
Several values for one entry are separate records, joined by “and”; a condition that tells them apart may be missing. Equal entries are not always repeated. Inconclusive results and toxic doses are left out. Cut-off read from the data, not from the text of the source: active = T/C of 150% or more; inactive = T/C below 125%.

System: L1210 leukemia ip in BDF1 mice, survival T/C
Assay: NCI In Vivo Anticancer Drug Screen. Data for tumor model L1210 Leukemia (intraperitoneal) in B6D2F1 (BDF1) mice
Details: endpoint: mean survival time, higher = longer survival
In short: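 Value reflects the ratio of survival in compound-treated mice to survival in vehicle-treated controls, with both groups carrying the same transplanted tumor.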

[1] = dose: 100.0 mg/kg/injection, schedule: Q01DX001 (ip), vehicle: saline
[2] = dose: 200.0 mg/kg/injection, schedule: Q01DX001 (ip), vehicle: saline
[3] = dose: 400.0 mg/kg/injection, schedule: Q01DX001 (ip), vehicle: saline
[4] = dose: 100.0 mg/kg/injection, schedule: Q01DX009 (ip), vehicle: saline with Tween-80
[5] = dose: 200.0 mg/kg/injection, schedule: Q01DX009 (ip), vehicle: saline with Tween-80
[6] = dose: 400.0 mg/kg/injection, schedule: Q01DX009 (ip), vehicle: saline with Tween-80
[7] = dose: 100.0 mg/kg/injection, schedule: Q04DX003 (ip), vehicle: Klucel (hydroxypropylcellulose) (HPC)
[8] = dose: 200.0 mg/kg/injection, schedule: Q04DX003 (ip), vehicle: Klucel (hydroxypropylcellulose) (HPC)
[9] = dose: 400.0 mg/kg/injection, schedule: Q04DX003 (ip), vehicle: Klucel (hydroxypropylcellulose) (HPC)
[10] = dose: 100.0 mg/kg/injection, schedule: Q01DX009 (ip), vehicle: saline
[11] = dose: 200.0 mg/kg/injection, schedule: Q01DX009 (ip), vehicle: saline
[12] = dose: 400.0 mg/kg/injection, schedule: Q01DX009 (ip), vehicle: saline
[13] = dose: 100.0 mg/kg/injection, schedule: Q04DX003 (ip), vehicle: saline
[14] = dose: 200.0 mg/kg/injection, schedule: Q04DX003 (ip), vehicle: saline
[15] = dose: 400.0 mg/kg/injection, schedule: Q04DX003 (ip), vehicle: saline
[16] = dose: 100.0 mg/kg/injection, schedule: Q01DX009 (ip), vehicle: Klucel (hydroxypropylcellulose) (HPC)
[17] = dose: 50.0 mg/kg/injection, schedule: Q01DX001 (ip), vehicle: saline

Measured: T/C

CC1CCCCN1P(c1ccccc1)N1CCCCC1C (configuration not stated)
inactive: dose: 100.0 mg/kg/injection, schedule: Q04DX002 (sc), vehicle: olive oil, sesame oil, peanut oil 97 % of control | dose: 200.0 mg/kg/injection, schedule: Q04DX002 (sc), vehicle: olive oil, sesame oil, peanut oil 113 % of control | dose: 400.0 mg/kg/injection, schedule: Q04DX002 (sc), vehicle: olive oil, sesame oil, peanut oil 107 % of control

CCCCN(CCC#N)C(N)=O
inactive: dose: 100.0 mg/kg/injection, schedule: Q01DX Z (ip), vehicle: methylcellulose (MC) 100 % of control

CCCCCCOC(=O)Nc1ccc(S(=O)(=O)NC2CCCCC2)cc1
inactive: [1] 94 % of control | [2] 90 % of control | [3] 95 % of control

C/C(=N\N=C(/C)c1c(C)c([N+](=O)[O-])c(C(C)(C)C)c([N+](=O)[O-])c1C)c1c(C)c([N+](=O)[O-])c(C(C)(C)C)c([N+](=O)[O-])c1C
inactive: dose: 100.0 mg/kg/injection, schedule: Q04DX002 (ip), vehicle: Klucel (hydroxypropylcellulose) (HPC) 97 % of control | dose: 200.0 mg/kg/injection, schedule: Q04DX002 (ip), vehicle: Klucel (hydroxypropylcellulose) (HPC) 94 % of control | dose: 400.0 mg/kg/injection, schedule: Q04DX002 (ip), vehicle: Klucel (hydroxypropylcellulose) (HPC) 97 % of control

Cc1cc(C)c(S(=O)(=O)c2ccc(F)cc2)c(C)c1
inactive: [4] 98 % of control | [5] 98 % of control | [6] 101 % of control

O=c1[nH]c2ccccc2n1C1=CCN(Cc2ccccc2)CC1
inactive: [7] 95 % of control | [8] 109 % of control | [9] 112 % of control

CC(=O)OCC(OC(C)=O)C(OC(C)=O)C(OC(C)=O)C(O)C#N (configuration not stated)
inactive: dose: 12.5 mg/kg/injection, schedule: Q01DX009 (ip), vehicle: saline with Tween-80 93 % of control | dose: 25.0 mg/kg/injection, schedule: Q01DX009 (ip), vehicle: saline with Tween-80 93 % of control | dose: 50.0 mg/kg/injection, schedule: Q01DX009 (ip), vehicle: saline with Tween-80 97 % of control and 100 % of control

c1cc[c]([Pb]([c]2ccccc2)([c]2ccccc2)[n]2ccc3ccccc32)cc1
inactive: dose: 1.0 mg/kg/injection, schedule: Q04DX003 (ip), vehicle: saline with Tween-80 113 % of control | dose: 1.56 mg/kg/injection, schedule: Q01DX009 (ip), vehicle: saline with Tween-80 91 % of control | dose: 2.0 mg/kg/injection, schedule: Q04DX003 (ip), vehicle: saline with Tween-80 90 % of control | dose: 3.12 mg/kg/injection, schedule: Q01DX009 (ip), vehicle: saline with Tween-80 89 % of control | dose: 4.0 mg/kg/injection, schedule: Q04DX003 (ip), vehicle: saline with Tween-80 101 % of control | dose: 8.0 mg/kg/injection, schedule: Q04DX003 (ip), vehicle: saline with Tween-80 101 % of control

O=C(O)CC1(CC(=O)O)C(=O)N(c2ccccc2)c2ccccc21
inactive: dose: 100.0 mg/kg/injection, schedule: Q01DX001 (ip), vehicle: saline with Tween-80 95 % of control | dose: 200.0 mg/kg/injection, schedule: Q01DX001 (ip), vehicle: saline with Tween-80 90 % of control | dose: 400.0 mg/kg/injection, schedule: Q01DX001 (ip), vehicle: saline with Tween-80 97 % of control

COP1(=O)OCC2OC(n3cnc4c(N)ncnc43)C(O)C2O1 (configuration not stated)
inactive: dose: 100.0 mg/kg/injection, schedule: Q01DX005 (ip), vehicle: saline 95 % of control and 103 % of control | [10] 89 % of control | dose: 200.0 mg/kg/injection, schedule: Q01DX005 (ip), vehicle: saline 89 % of control and 92 % of control | [11] 92 % of control | dose: 400.0 mg/kg/injection, schedule: Q01DX005 (ip), vehicle: saline 92 % of control | [12] 98 % of control | dose: 600.0 mg/kg/injection, schedule: Q01DX005 (ip), vehicle: saline 101 % of control

Cc1noc(-n2c(C)ccc2C)c1C
inactive: [13] 97 % of control | [14] 100 % of control | [15] 95 % of control

Nc1ccn(Cc2ccccc2)c(=O)n1
inactive: dose: 75.0 mg/kg/injection, schedule: Q01DX001 (ip), vehicle: saline with Tween-80 95 % of control | dose: 150.0 mg/kg/injection, schedule: Q01DX001 (ip), vehicle: saline with Tween-80 94 % of control | dose: 300.0 mg/kg/injection, schedule: Q01DX001 (ip), vehicle: saline with Tween-80 95 % of control

OCc1cccc(F)c1
inactive: [10] 98 % of control | [13] 105 % of control | [11] 95 % of control | [14] 102 % of control | [12] 98 % of control | [15] 104 % of control

S=C(N/N=C/C=C/c1ccccc1)NC1CC2CC1C1C=CCC21 (configuration not stated)
inactive: [16] 94 % of control | dose: 200.0 mg/kg/injection, schedule: Q01DX009 (ip), vehicle: Klucel (hydroxypropylcellulose) (HPC) 117 % of control | dose: 400.0 mg/kg/injection, schedule: Q01DX009 (ip), vehicle: Klucel (hydroxypropylcellulose) (HPC) 88 % of control

C(/C=C/c1ccccc1)=C\c1ccccc1
inactive: [17] 104 % of control | [1] 104 % of control | [2] 104 % of control | [3] 104 % of control

OC(C1CO1)(C(F)(F)F)C(F)(F)F (configuration not stated)
inactive: [10] 98 % of control | dose: 100.0 mg/kg/injection, schedule: Q04DX003 (ip), vehicle: saline with Tween-80 92 % of control | [11] 106 % of control | dose: 200.0 mg/kg/injection, schedule: Q04DX003 (ip), vehicle: saline with Tween-80 91 % of control | dose: 400.0 mg/kg/injection, schedule: Q04DX003 (ip), vehicle: saline with Tween-80 97 % of control

CCCCOC(=O)Nc1cccc(O)c1
inactive: [4] 92 % of control | [5] 87 % of control

CCOS(=O)(=O)c1ccc([N+](=O)[O-])cc1[N+](=O)[O-]
inactive: [10] 97 % of control | [11] 92 % of control

Cc1ccc2c[n+]3cc4ccccc4cc3cc2c1
inactive: dose: 1.56 mg/kg/injection, schedule: Q04DX003 (ip), vehicle: saline 93 % of control | dose: 3.12 mg/kg/injection, schedule: Q01DX009 (ip), vehicle: saline 107 % of control | dose: 3.12 mg/kg/injection, schedule: Q04DX003 (ip), vehicle: saline 114 % of control | dose: 6.25 mg/kg/injection, schedule: Q01DX009 (ip), vehicle: saline 105 % of control | dose: 6.25 mg/kg/injection, schedule: Q04DX003 (ip), vehicle: saline 103 % of control | dose: 12.5 mg/kg/injection, schedule: Q04DX003 (ip), vehicle: saline 107 % of control

NC(N)=NN=C(c1ccc(F)cc1)c1ccc(F)cc1
inactive: dose: 4.0 mg/kg/injection, schedule: Q01DX Z (oral), vehicle: carboxymethylcellulose (CMC) 111 % of control | dose: 8.0 mg/kg/injection, schedule: Q01DX Z (oral), vehicle: carboxymethylcellulose (CMC) 104 % of control | dose: 10.0 mg/kg/injection, schedule: Q01DX001 (ip), vehicle: carboxymethylcellulose (CMC) 100 % of control

CCCCc1c(C)[nH]c(=S)[nH]c1=O
inactive: [4] 95 % of control | [5] 100 % of control | [6] 91 % of control

c1ccncc1
inactive: dose: 6.25 mg/kg/injection, schedule: Q01DX009 (ip), vehicle: alcohol 96 % of control | dose: 12.5 mg/kg/injection, schedule: Q01DX009 (ip), vehicle: alcohol 93 % of control | dose: 25.0 mg/kg/injection, schedule: Q01DX009 (ip), vehicle: alcohol 93 % of control | [16] 88 % of control | [10] 93 % of control | [7] 101 % of control | [13] 101 % of control | [11] 93 % of control | [8] 106 % of control | [14] 89 % of control | [12] 86 % of control | [9] 95 % of control | [15] 91 % of control

CC(=O)Oc1cc(C)cc(OC(C)=O)n1
inactive: [17] 104 % of control | [1] 98 % of control | [2] 98 % of control | [3] 96 % of control
